PMC7031696 (Cell chemical biology, 2019)

Tested on: 3D7-MR4 trophozoite parasite-infected RBCs
Assay: Metabolomic profiling (hydrophilic metabolite changes, UHPLC-MS)
Assay type: cell-based, Plasmodium falciparum

Question: Which “Log2(fold changes) adenosine” value (metabolite adenosine, log2 fold change) does the source give for `CC(C)(C)NCc1cc(Nc2ccnc3cc(Cl)ccc23)c2c(c1O)CCCC2` [Naphtoquine, Naphthoquine, reference compound] here?
Answer: The value was 0.0000.

Question: What about the “Log2(fold changes) alanine/sarcosine” value (metabolite alanine/sarcosine, log2 fold change) of the same molecule?
Answer: Its value is -0.0537.

Question: And the “Log2(fold changes) anthranilate” value (metabolite anthranilate, log2 fold change)?
Answer: The value was 0.0000.

Question: And the “Log2(fold changes) arginine” value (metabolite arginine, log2 fold change)?
Answer: The value was 0.0159.

Question: And the “Log2(fold changes) asparagine” value (metabolite asparagine, log2 fold change)?
Answer: The value was 0.0139.

Question: And the “Log2(fold changes) aspartate” value (metabolite aspartate, log2 fold change)?
Answer: Its value is -0.0605.

Question: What about the “Log2(fold changes) biotin” value (metabolite biotin, log2 fold change) of the same molecule?
Answer: Its value is 0.0000.

Question: What about the “Log2(fold changes) cCMP” value (metabolite cCMP, log2 fold change) of the same molecule?
Answer: Its value is 0.0520.

Question: And the “Log2(fold changes) cGMP” value (metabolite cGMP, log2 fold change)?
Answer: Its value is 0.0000.

Question: And the “Log2(fold changes) carnitine” value (metabolite carnitine, log2 fold change)?
Answer: Its value is 0.0000.

Question: What about the “Log2(fold changes) citrate/isocitrate” value (metabolite citrate/isocitrate, log2 fold change) of the same molecule?
Answer: Its value is -0.0500.

Question: What about the “Log2(fold change) of coenzyme A” value (metabolite coenzyme A) of the same molecule?
Answer: Its value is -0.1736.

Question: And the “Log2(fold change) of cyclic-AMP” value (metabolite cyclic-AMP)?
Answer: Its value is -3.95e-5.

Question: And the “Log2(fold change) of cytidine” value (metabolite cytidine)?
Answer: The value was 0.0481.

Question: And the “Log2(fold change) of dAMP” value (metabolite dAMP)?
Answer: Its value is -0.6907.

Question: And the “Log2(fold change) of dATP” value (metabolite dATP)?
Answer: Its value is 0.1926.

Question: What about the “Log2(fold change) of dCDP” value (metabolite dCDP) of the same molecule?
Answer: The value was -0.7164.

Question: What about the “Log2(fold change) of dCMP” value (metabolite dCMP) of the same molecule?
Answer: Its value is -0.1991.

Question: What about the “Log2(fold change) of dCTP” value (metabolite dCTP) of the same molecule?
Answer: Its value is -0.0054.

Question: And the “Log2(fold change) of dGDP/ADP” value (metabolite dGDP/ADP)?
Answer: The value was -0.3882.

Question: What about the “Log2(fold change) of dGMP/AMP” value (metabolite dGMP/AMP) of the same molecule?
Answer: Its value is -0.6721.

Question: And the “Log2(fold change) of dGTP/ATP” value (metabolite dGTP/ATP)?
Answer: The value was 0.1282.

Question: What about the “Log2(fold change) of dTDP” value (metabolite dTDP) of the same molecule?
Answer: The value was -0.6082.

Question: And the “Log2(fold change) of dTMP” value (metabolite dTMP)?
Answer: The value was -0.8354.

Question: What about the “Log2(fold change) of dTTP” value (metabolite dTTP) of the same molecule?
Answer: Its value is 0.1193.

Question: And the “Log2(fold change) of dUMP” value (metabolite dUMP)?
Answer: Its value is 0.0000.

Question: And the “Log2(fold change) of dUTP” value (metabolite dUTP)?
Answer: Its value is 0.0000.

Question: And the “Log2(fold change) of deoxyguanosine” value (metabolite deoxyguanosine)?
Answer: The value was 0.0000.

Question: And the “Log2(fold change) of deoxyinosine” value (metabolite deoxyinosine)?
Answer: The value was 0.0000.

Question: What about the “Log2(fold change) of deoxyribose-phosphate” value (metabolite deoxyribose-phosphate) of the same molecule?
Answer: Its value is 0.0000.

Question: And the “Log2(fold change) of deoxyuridine” value (metabolite deoxyuridine)?
Answer: The value was 0.0000.

Question: What about the “Log2(fold change) of dihydroorotate” value (metabolite dihydroorotate) of the same molecule?
Answer: Its value is -0.0270.

Question: And the “Log2(fold change) of folate” value (metabolite folate)?
Answer: Its value is -0.0482.

Question: And the “Log2(fold change) of fructose-1-6-bisphosphate” value (metabolite fructose-1-6-bisphosphate)?
Answer: The value was 0.2760.

Question: And the “Log2(fold change) of fructose-6-phosphate” value (metabolite fructose-6-phosphate)?
Answer: Its value is 0.2447.

Question: What about the “Log2(fold change) of fumarate” value (metabolite fumarate) of the same molecule?
Answer: The value was 0.1140.

Question: And the “Log2(fold change) of glucono-lactone” value (metabolite glucono-lactone)?
Answer: Its value is 0.0480.

Question: What about the “Log2(fold change) of glucose-1/6-phosphate” value (metabolite glucose-1/6-phosphate) of the same molecule?
Answer: Its value is 0.0000.

Question: And the “Log2(fold change) of glutamate” value (metabolite glutamate)?
Answer: The value was 0.0377.

Question: What about the “Log2(fold change) of glutamine” value (metabolite glutamine) of the same molecule?
Answer: The value was 0.0892.

Question: And the “Log2(fold change) of glutathione” value (metabolite glutathione)?
Answer: The value was -0.0422.

Question: And the “Log2(fold change) glutathione disulfide” value (metabolite glutathione disulfide)?
Answer: The value was -0.0039.

Question: What about the “Log2(fold change) glycerate” value (metabolite glycerate) of the same molecule?
Answer: Its value is 0.0000.

Question: What about the “Log2(fold change) guanine” value (metabolite guanine) of the same molecule?
Answer: Its value is -1.1501.

Question: What about the “Log2(fold change) guanosine” value (metabolite guanosine) of the same molecule?
Answer: The value was 0.0000.

Question: What about the “Log2(fold change) histidine” value (metabolite histidine) of the same molecule?
Answer: Its value is 0.1439.

Question: And the “Log2(fold change) homocysteic acid” value (metabolite homocysteic acid)?
Answer: Its value is 0.0000.

Question: And the “Log2(fold change) hydroxyphenylpyruvate” value (metabolite hydroxyphenylpyruvate)?
Answer: The value was 0.0000.

Question: What about the “Log2(fold change) hydroxyproline/Aminolevulinate” value (metabolite hydroxyproline/Aminolevulinate) of the same molecule?
Answer: Its value is 0.1631.

Question: What about the “Log2(fold change) hypoxanthine” value (metabolite hypoxanthine) of the same molecule?
Answer: The value was 0.0000.

Question: And the “Log2(fold change) indole” value (metabolite indole)?
Answer: Its value is 0.0000.

Question: What about the “Log2(fold change) inosine” value (metabolite inosine) of the same molecule?
Answer: Its value is -0.4099.

Question: What about the “Log2(fold change) isoleucine” value (metabolite isoleucine) of the same molecule?
Answer: Its value is 0.1976.

Question: What about the “Log2(fold change) lactate” value (metabolite lactate) of the same molecule?
Answer: Its value is -0.2436.

Question: And the “Log2(fold change) leucine” value (metabolite leucine)?
Answer: Its value is 0.1923.

Question: What about the “Log2(fold change) lysine” value (metabolite lysine) of the same molecule?
Answer: Its value is 0.0742.

Question: And the “Log2(fold change) malate” value (metabolite malate)?
Answer: Its value is 0.0333.

Question: And the “Log2(fold change) maleic acid” value (metabolite maleic acid)?
Answer: Its value is 0.0474.

Question: And the “Log2(fold change) methionine” value (metabolite methionine)?
Answer: Its value is 0.2831.

Question: What about the “Log2(fold change) myo-inositol” value (metabolite myo-inositol) of the same molecule?
Answer: The value was -0.3601.

Question: What about the “Log2(fold change) nicotinamide mononucleotide” value (metabolite nicotinamide mononucleotide) of the same molecule?
Answer: Its value is 0.0144.

Question: And the “Log2(fold change) nicotinate” value (metabolite nicotinate)?
Answer: The value was -0.5500.

Question: What about the “Log2(fold change) ornithine” value (metabolite ornithine) of the same molecule?
Answer: Its value is 0.0000.

Question: And the “Log2(fold change) orotate” value (metabolite orotate)?
Answer: Its value is -0.1816.

Question: And the “Log2(fold change) orotidine-5'-phosphate” value (metabolite orotidine-5'-phosphate)?
Answer: Its value is -0.1754.

Question: What about the “Log2(fold change) oxaloacetate” value (metabolite oxaloacetate) of the same molecule?
Answer: The value was 0.0000.

Question: What about the “Log2(fold change) p-aminobenzoate” value (metabolite p-aminobenzoate) of the same molecule?
Answer: The value was 0.0000.

Question: And the “Log2(fold change) p-hydroxybenzoate” value (metabolite p-hydroxybenzoate)?
Answer: The value was 0.0000.

Question: What about the “Log2(fold change) pantothenate” value (metabolite pantothenate) of the same molecule?
Answer: Its value is 0.0000.

Question: What about the “Log2(fold change) phenylalanine” value (metabolite phenylalanine) of the same molecule?
Answer: The value was 0.1566.

Question: What about the “Log2(fold change) phenylpyruvate” value (metabolite phenylpyruvate) of the same molecule?
Answer: Its value is 0.0000.

Question: And the “Log2(fold change) phosphoenolpyruvate” value (metabolite phosphoenolpyruvate)?
Answer: The value was 0.1381.

Question: What about the “Log2(fold change) prephenate” value (metabolite prephenate) of the same molecule?
Answer: The value was 0.0000.

Question: And the “Log2(fold change) proline” value (metabolite proline)?
Answer: The value was -0.0640.

Question: What about the “Log2(fold change) pyridoxine” value (metabolite pyridoxine) of the same molecule?
Answer: Its value is -0.2953.

Question: What about the “Log2(fold change) pyruvate” value (metabolite pyruvate) of the same molecule?
Answer: The value was -0.0949.

Question: What about the “Log2(fold change) riboflavin” value (metabolite riboflavin) of the same molecule?
Answer: Its value is 0.0784.

Question: And the “Log2(fold change) ribose” value (metabolite ribose)?
Answer: The value was 0.2671.

Question: What about the “Log2(fold change) ribose-phosphate” value (metabolite ribose-phosphate) of the same molecule?
Answer: Its value is 0.0683.

Question: And the “Log2(fold change) ribulose-5-phosphate” value (metabolite ribulose-5-phosphate)?
Answer: The value was 0.2669.

Question: And the “Log2(fold change) serine” value (metabolite serine)?
Answer: The value was 0.0398.

Question: What about the “Log2(fold change) sn-glycerol-3-phosphate” value (metabolite sn-glycerol-3-phosphate) of the same molecule?
Answer: The value was 0.2727.

Question: What about the “Log2(fold change) succinate/Methylmalonic acid” value (metabolite succinate/Methylmalonic acid) of the same molecule?
Answer: Its value is 0.1812.

Question: And the “Log2(fold change) succinyl-CoA/methylmalonyl-CoA” value (metabolite succinyl-CoA/methylmalonyl-CoA)?
Answer: The value was 0.0000.

Question: And the “Log2(fold change) taurine” value (metabolite taurine)?
Answer: Its value is 0.1018.

Question: What about the “Log2(fold change) thiamine” value (metabolite thiamine) of the same molecule?
Answer: Its value is -0.0320.

Question: What about the “Log2(fold change) threonine/homoserine” value (metabolite threonine/homoserine) of the same molecule?
Answer: The value was -0.0093.

Question: What about the “Log2(fold change) thymidine” value (metabolite thymidine) of the same molecule?
Answer: The value was 0.0000.

Question: What about the “Log2(fold changes) thymine” value (metabolite thymine, log2 fold change) of the same molecule?
Answer: Its value is 0.0000.

Question: And the “Log2(fold changes) trehalose-6-Phosphate” value (metabolite trehalose-6-Phosphate, log2 fold change)?
Answer: Its value is 0.0000.

Question: What about the “Log2(fold changes) tryptophan” value (metabolite tryptophan, log2 fold change) of the same molecule?
Answer: Its value is 0.2627.

Question: What about the “Log2(fold changes) tyrosine” value (metabolite tyrosine, log2 fold change) of the same molecule?
Answer: The value was 0.1902.

Question: What about the “Log2(fold changes) uridine” value (metabolite uridine, log2 fold change) of the same molecule?
Answer: Its value is 0.0000.

Question: And the “Log2(fold changes) valine” value (metabolite valine, log2 fold change)?
Answer: The value was 0.0658.

Question: What about the “Log2(fold changes) xanthine” value (metabolite xanthine, log2 fold change) of the same molecule?
Answer: Its value is -0.8439.

Question: What about the “Log2(fold changes) xanthosine-5-phosphate” value (metabolite xanthosine-5-phosphate, log2 fold change) of the same molecule?
Answer: Its value is 0.0356.

Question: What about the “Log2(fold changes) xanthosine” value (metabolite xanthosine, log2 fold change) of the same molecule?
Answer: Its value is 0.2527.

Question: And the “Log2(fold changes) xylose” value (metabolite xylose, log2 fold change)?
Answer: Its value is 0.0000.
